Source: patent US20170121752A1, “DETECTION OF ACRYLIC ACID” (AGENCY FOR SCIENCE, TECHNOLOGY AND RESEARCH, priority 2014, published 2017)
“Also recorded” adds a separate entry of the source.

Assays:
[1] = Fluorescence assay of the photoactivated reaction between diaryltetrazole and acrylic acid; details: for λex,max / λem,max: 100 μM compound reacted with acrylic acid; for λex,max / Fold increase in fluorescence 100 μM / Fold increase in fluorescence 10 mM / λem,max: photoirradiation 1 minute at 302 nm; for Fold increase in fluorescence 100 μM / Fold increase in fluorescence 10 mM: 100 μM compound; for Fold increase in fluorescence 100 μM / pH of signal detection peak: 100 μM acrylic acid; for Fold increase in fluorescence 10 mM: 10 mM acrylic acid; for fluorescence increases above the background: reacted with acrylic acid, summary of Table 1
Procedure: A solution containing the diaryltetrazole (0.022 mmol) and acrylic acid (0.02 to 0.050 mmol) was irradiated with a hand-held 302-nm UV lamp for 1 minute. Experiments were performed in a black 96-well plate with a total reaction volume of 100 The maximum excitation wavelengths indicated in Table 1 were used for each of the scans. The fluorescence emission spectrums of the reaction are shown in FIG. 1a to if using 10 μM of acrylic acid. The spectra for control experiments where either of the reactants was omitted have also been depicted in each of FIGS. 1a to 1f.
As mentioned earlier, the lower limit of detection of acrylic acid for compound 4 was 500 nM of acrylic acid upon a 1 minute photoactivation period with UV light at 302 nm. […]
As described above, compound 4 was used in further experiments to detect acrylic acid. The reaction between compound 4 and acrylic acid was carried out in water with a photoactivation time of 1 minute at 302 nm. Using 100 μM of 4, acrylic acid concentrations from 1 μM to 100 μM were readily detectable with a fluorescence microplate reader (see FIG. 3 and example 9).

C. propionicum = assay: Fluorescence signal of bacterial cell lysates grown with 3-butynoic acid; assay type: cell-based, Clostridium propionicum; details: media with 5 and 10 mM 3-butynoic acid, lysates treated with compound 4
Procedure: The cell lysates were treated with […] of diaryltetrazole compound 4 for fluorescence detection. […] 3-Butynoic acid, an acyl CoA dehydrogenase inhibitor, may be capable of promoting accumulation of acrylyl CoA in cells. In C. propionicum, acrylyl CoA is normally converted to propionyl CoA. However, in the presence of 3-butynoic acid, this reaction is inhibited. […] C. propionicum naturally produces acrylic acid but E. Coli. may not naturally produce acrylic acid.

[2] = Fluorescence assay of the photoactivated reaction between diaryltetrazole and acrylamide
Procedure: To substantiate the above, the reaction between compound 4 and acrylic acid (AA), and the reaction between compound 4 and acrylamide (a derivative), were carried out in buffers from pH 1 to pH 13. […] Deprotonation of the chromophore appears to result in higher fluorescence intensity of the pyrazoline product.
100 μM acrylic acid and 2 different grades of acrylamides, particularly gel electrophoresis acrylamide (GE) and molecular biology acrylamide (MB), were tested with 100 μM of compound 4 over the entire pH range. The reaction between compound 4 and acrylic acid/acrylamide was carried out in a phosphate buffer (having different pH as indicated) in 10% DMSO with a photoactivation time of 1 minute at 302 nm. Fluorescence was measured using a fluorescence microplate reader. […] Clearly, the detection method of the present disclosure is capable of detecting acrylate derivatives.
Compound 4 was also used to detect acrylamide in vitro. The reaction between compound 4 and acrylamide was carried out in phosphate buffer at pH 9.0 with 10% DMSO with a photoactivation time of 1 minute at 302 nm. Using 100 μM of compound 4, acrylamide concentrations from 1 μM to 100 μM were readily detectable with a fluorescence microplate reader as shown in FIG. 18.
10% (v/v) of different oils in a phosphate buffer of pH 9.0 containing 1% Tween-20 were spiked in with 10 mM Acrylamide (gel electrophoresis grade). Controls were uncontaminated. Reactions of these mixtures were set up with 100 μM of compound 4 with a photoactivation time of 1 minute at 302 nm. Fluorescence was measured using a fluorescence microplate reader.
100 μM of acrylic acid and acrylamide (gel electrophoresis grade) were tested with 100 μM of compound 4 over a pH range of 7 to 13. The reaction between compound 4 and acrylic acid/acrylamide was carried out in a phosphate buffer (having different indicated pH) in 10% DMSO with a photoactivation time of 1 minute at 302 nm. Fluorescence was measured using a fluorescence microplate reader.

[3] = Reaction monitoring of photoactivated cycloaddition using HPLC and fluorescence
Procedure: 10 mM of compound 4 was dissolved in dichloromethane and methanol (1:1). A separate solution of 10 mM of acrylic acid was dissolved in methanol. 10 μL of 10 mM of compound 4 and 10 μL of 10 mM of acrylic acid were then dissolved in 80 μL of methanol. After vigorous stirring, the mixture was irradiated with a 302 nm UV lamp for 0 seconds, 15 seconds, 30 seconds, 45 seconds, 60 seconds, 90 seconds and 120 seconds, respectively. An aliquot (10 μL) of reaction solution from each sample was withdrawn and immediately injected in the HPLC column. Compound 4 (denoted as A) and the pyrazoline product 4P (denoted as B) in each sample was monitored by UV absorbance at 254 nm and 370 nm. A linear gradient of 5 to 90% MeOH was applied after 3 minutes for 10 minutes, which is then kept constant for 10 minutes before a 7 minutes linear declining gradient of 90 to 5% MeOH. Compound 4 and product 4P were eluted at about 13.4 minutes and 12.4 minutes respectively.
The kinetic reaction studies involving diaryltetrazole compound 4 and acrylic acid were carried out by monitoring with HPLC from 0 to 120 seconds as described above.
Fluorescence turn on of the reaction mixture occurred after 15 seconds. The left vial to the right vial are labelled as no UV activation, 15 seconds, 30 seconds, 45 seconds, 60 seconds, 90 seconds, 120 seconds of UV activation, respectively. […]

C. propionicum cells = assay: In vivo detection of acrylic acid in C. propionicum cells by fluorescence microscopy and lysate fluorescence; assay type: cell-based, Clostridium propionicum; details: 100 μM compound 4, 30 min, UV 302 nm 1 minute, with or without 100 μM acrylic acid added
Procedure: To test the diaryltetrazole sensor for in vivo production of acrylic acid, we applied compound 4 to C. propionicum cells. C. propionicum cells were grown to late log phase (OD600˜1.0) in an anoxia chamber and treated with 100 μM of compound 4. After incubating at 37° C. for 30 min in the dark, cells were washed, pelleted, suspended in PBS buffer and mounted on a slide. Cells were exposed to 302 nm UV light for 1 minute and imaged under a fluorescence microscope (using DAPI filters) after about 2 hours of recovery at room temperature. Control cells include cells treated with acrylic acid and compound 4 to observe positive fluorescence; untreated cells and cells treated with acrylic acid alone and without UV treatment. […] This indicates the production of acrylic acid intermediates in these cells and the diaryltetrazole probe is capable of detecting them.

E. coli cells = assay: In vivo detection of acrylic acid in E. coli cells by fluorescence microscopy; assay type: cell-based; details: 100 μM acrylic acid 10 minutes, 100 μM compound 4 30 min, UV 302 nm 1 minute
Procedure: The use of compound 4 as an acrylic acid sensor in vivo was tested in this example. E. coli cells were grown to late log phase (OD600˜1.0) and treated with 100 μM acrylic acid for 10 minutes at 37° C. Upon washing, cells were treated with 100 μM of compound 4 and incubated at 37° C. for 30 min in the dark. The cells were washed, pelleted, suspended in 1×PBS and mounted on a slide. They were then exposed to UV light at 302 nm for 1 minute and imaged under a fluorescence microscope (using DAPI filters) after about 2 hours of recovery at room temperature. Control cells include untreated cells; cells treated with either acrylic acid or compound 4 alone and without UV treatment.

Structure (SMILES)	λex,max [1] [nm]	Fold increase in fluorescence 100 μM [1]	Fold increase in fluorescence 10 mM [1]	fluorescence increases above the background [1]	λem,max [1] [nm]	also measured
COc1ccc(-n2nnc(-c3ccccc3)n2)cc1 [Compound 7]	368	1.43	3.38	around 3 fold	–	–
COc1ccc(-n2nnc(-c3ccc(C)cc3)n2)cc1 [Compound 6]	371	–	3.87	around 3 fold	–	–
C#CCC(=O)O [3-butynoic acid, 3-Butynoic acid]	–	–	–	–	–	fluorescence signal of cell lysates (C. propionicum): fluorescence signal is higher
COC(=O)c1ccc(-c2nnn(-c3ccc(F)cc3F)n2)cc1 [Compound 3]	380	1.12	3.17	around 3 fold	482	–
COC(=O)c1ccc(-c2nnn(-c3ccccc3)n2)cc1 [Compound 1]	395	–	3.23	around 3 fold	482	–
COC(=O)c1ccc(-c2nnn(-c3ccc(F)cc3)n2)cc1 [Compound 2]	392	1.12	3.38	around 3 fold	487	–
O=C(O)c1ccc(-c2nnn(-c3ccccc3)n2)cc1 [Compound 4]	380	132	5.15	–	520	pH of fluorescent peak ([2]; 100 μM acrylamide (gel electrophoresis grade), 100 μM compound 4, pH range 7 to 13 (FIG. 21)): 9.0 pH; pH of signal detection peak ([2]; 100 μM acrylamide, 100 μM compound 4, entire pH range, phosphate buffer 10% DMSO (FIG. 17)): 9.0 pH; detection of acrylamide in a complex organic/detergent mixture ([2]; 10% (v/v) oils, phosphate buffer pH 9.0, 1% Tween-20, 10 mM acrylamide, 100 μM compound 4): able to detect acrylamide in a complex organic/detergent mixture; time to completion of the reaction with acrylic acid ([3]; HPLC monitoring, 302 nm UV, methanol): ≤ 90 s; time to fluorescence turn on of the reaction mixture ([3]; compound 4 and acrylic acid in methanol, UV activation): ≤ 15 s; fluorescence of cells (C. propionicum cells): cells were fluorescent; pH of signal detection peak ([1]; 100 μM compound 4, entire pH range, phosphate buffer 10% DMSO (FIG. 17)): 11.0 pH; pH of signal detection peak ([1]; 100 μM compound 4, pH range 7 to 13 (FIG. 21)): 10.0 pH; fluorescence detection of acrylic acid in LB media and minimum media ([1]; 100 μM compound 4, 1 min photoactivation): readily detected before the completion of photoactivation; lower limit of detection of acrylic acid ([1]; 1 minute photoactivation with UV light at 302 nm): 500 nM; Fold increase in fluorescence ([1]; Table 2: 100 μM compound 4, 500 nM acrylic acid): 1.12; Fold increase in fluorescence ([1]; Table 2: 100 μM compound 4, 1 μM acrylic acid): 1.58; Fold increase in fluorescence ([1]; Table 2: 100 μM compound 4, 10 μM acrylic acid): 17; Fold increase in fluorescence ([1]; Table 2: 100 μM compound 4, 100 μM acrylic acid): 132; fluorescence of the probe alone (control experiments) ([1]; buffers pH 1 to pH 13, without analyte): not fluorescent at all pH tested; fluorescence of bacterial cells (E. coli cells): only fluorescent in the presence of both acrylic acid and compound 4
Cc1ccc(-c2nnn(-c3ccc(N)cc3)n2)cc1 [Compound 5]	–	–	–	–	–	fluorescence / reactivity towards acrylic acid ([1]; reaction with acrylic acid, photoactivation): No fluorescence; also recorded: unreactive towards acrylic acid, forming little or no fluorescent product
